Laboratory results from patent US4826962A, “Tetrachlororaffinose and its use in the preparation of sucralose” (Tate & Lyle Public Limited Company, priority 1985, dated 1989).
In brackets after ≈: the same amount, converted by molar mass. Values belong to the compound of their own block, whether it stands above or below them.

What was measured:
[1] = Solubility in solvents pre-saturated with aqueous buffer at 55° C.; format: physicochemical
[2] = tested on: Melibiase in the form of pelletised cells of Mortierella vinacea var raffinoseutilizer (ATCC 20034); assay: Hydrolysis of TCR to sucralose by melibiase pellets in aqueous buffer; format: biochemical; details: for TCR hydrolysed: 55° C., pH 5.0, 1% (w/v) TCR
Procedure: The tetrachlorogalactoraffinose of Example 1 (20 mg) was placed in a screw-top bottle together with 0.1M-citrate-phosphate buffer (pH 5.0) (2 ml) to give a 1% (w/v) solution. This level of water was maintained during the following incubation period by addition of more water when required.
Melibiase in the form of pelletised cells of Mortierella vinacea var raffinoseutilizer (ATCC 20034) (supplied by Hokkaido Sugar Co, Japan) was added (10 mg) and the mixture was incubated at 55° C. for up to 100 hours. The degree of hydrolysis was followed periodically by t.l.c. analysis of withdrawn 250 μl aliquots eluted with ethyl acetate:ethanol:water (45:5:1) or by hplc on a Waters Dextropak Cl8 reverse phase column eluted by acetonitrile 20% (v/v) and products measured using a refractive index detector. The result is plotted in FIG. 1. It was found, for example, that about 53% had been hydrolysed after 48 hours and about 70% after 90 hours. The products were separated by chromatography and, in addition to sucralose, the presence of 6-chlorogalactose and TCR was detected. TCR can be used at up to 15% (w/v) in this system.

[3] = tested on: α-Galactosidase in the form of pelletized cells of M. vinacea var raffinoseutilizer (ATCC 20034); assay: Hydrolysis of TCR to sucralose in organic media; format: biochemical; details: for Conversion of TCR into sucralose: 24 hours, 20 mM TCR, 55° C.
Procedure: The TCR of Example 1 (23 mg) was placed in a 5 ml screw-top vial and 2 ml of an organic solvent which had been pre-saturated with aqueous buffer (sodium acetate, 50 mM, pH 5.0) was added to give a 20 mM (1.15% w/v) solution. α-Galactosidase in the form of pelletized cells of M. vinacea var raffinoseutilizer (ATCC 20034) was added (100 mg) to each vial and the reactions were initiated by adding 1% v/v aqueous buffer, vortexing for 30 seconds, and placing the vial in a water-bath shaker at 55° C. and 100 rpm. Periodically, aliquots were removed and 25 μl were injected into an Hplc system fitted with a reverse phase (Waters Dextropak C18) column, using 20% aqueous acetonitrile as eluant, to measure the sucralose produced and the residual TCR. In the figure the progress of the hydrolysis of TCR into sucralose with time is plotted for aqueous buffer (curve 1) and for three solvents, methyl isobutyl ketone (2), ethyl acetate (3) and n-butanol (4). The hydrolysis reaction in methyl isobutyl ketone and in aqueous buffer were similar. Lower rates and conversions were obtained in ethyl acetate and n-butanol, respectively. In all cases, greater than 50% conversion in 24 hours was observed, with 70% conversions in aqueous buffer and methyl isobutyl ketone.
The reason that the time-course for TCR hydrolysis in ethyl acetate was lower than that in aqueous buffer at 20 mM TCR was due to the higher Km of TCR in ethyl acetate and not due to a lower catalytic activity. When 50 mM TCR was used, the rates and conversions of TCR hydrolysis in ethyl acetate were similar to those in aqueous buffer.

[4] = tested on: α-galactosidase of Absidia griseola; assay: TCR hydrolysis by cell debris of α-galactosidase organisms; format: biochemical
Procedure: (§1) Organisms reported to have an α-galactosidase activity were obtained from the ATCC. They were grown in 500 ml shake flasks containing 100 ml of a mineral salts medium (Jayasuria, 1955 Journal of General Microbiology 12 419-428) containing 1 g/l yeast extract plus 5 g/l raffinose at 30° C. Cells were collected by centrifugation (5000 rev/min for 10 min) in the late exponential phase of growth, resuspended in 5 times their volume of citrate-phosphate buffer pH 5.0, and maintained at 0° C. in an ice bath and were disrupted by 3×20 second bursts in a MSE sonicator (Dawe Soniprobe Type 1130A) at maximum output. The resulting suspension was centrifuged (17,000 rev/min) for 30 minutes and both debris and supernatant assayed for α-galactosidase activity in units per g. dry weight of cell debris using p-nitrophenyl α-D-galactopyranoside (Sigma). Virtually no enzyme activity was detected in the supernatant. Cultures which were positive were then tested for TCR hydrolysis as in Example 4 and the results given in mg sucralose per g dry weight of cell debris per hour (for 70% conversion).

[5] = tested on: α-galactosidase of Aspergillus awamori; assay: as above; format: biochemical; details: Aspergillus awamori ATCC 44733, for 70% conversion
Procedure: as §1

[6] = tested on: α-galactosidase of Aspergillus niger; assay: as above; format: biochemical; details: Aspergillus niger ATCC 36220, for 70% conversion
Procedure: as §1

[7] = tested on: α-galactosidase of Circinella muscae; assay: as above; format: biochemical
Procedure: as §1

[8] = tested on: α-galactosidase of Mortierella vinacea; assay: as above; format: biochemical
Procedure: as §1

[9] = tested on: α-galactosidase of Saccharomyces uvarum; assay: as above; format: biochemical; details: Saccharomyces uvarum ATCC 42367, for 70% conversion
Procedure: as §1

[10] = tested on: α-galactosidase of Talaromyces thermophilus; assay: as above; format: biochemical; details: Talaromyces thermophilus ATCC 16461, for 70% conversion
Procedure: as §1

[11] = Stability of sucralose under the enzyme treatment conditions; format: physicochemical; details: about 55° C., pH 5.0
Procedure: In both aqueous and organic systems, the treatment should naturally be at the optimum temperature and pH for the enzyme which, for the M. vinacea melibiase is about 55° C. and pH 4.5-5.5. In water-saturated organic solvents this refers to the pH of the aqueous buffer. At this temperature and at a pH of 5.0, we find that the sucralose produced is not degraded.

[12] = sweeter than sucrose; cited from earlier work
[13] = cited from earlier work
[14] = organic solvent or mixture, ethyl acetate pre-saturated with aqueous buffer, 55° C.
[15] = organic solvent or mixture, methyl isobutyl ketone pre-saturated with aqueous buffer, 55° C.
[16] = organic solvent or mixture, n-butanol pre-saturated with aqueous buffer, 55° C.
[17] = organic solvent or mixture, n-octanol pre-saturated with aqueous buffer, 55° C.
[18] = organic solvent or mixture, nitrobenzene pre-saturated with aqueous buffer, 55° C.

SMILES: OC1C(CCl)OC(OCC2OC(OC3(CCl)OC(CCl)C(O)C3O)C(O)C(O)C2Cl)C(O)C1O (centres unmarked) [TCR, 4,1',6',6"-tetrachloro-4,1',6',6"-tetradeoxygalactoraffinose]
solubility ([1]; aqueous buffer): 150 mg/mL (≈ 259 mM)
solubility [1, 14]: > 500 mg/mL
solubility ([1]; organic solvent or mixture, hydrophilic water-immiscible solvents (ethyl acetate, n-butanol, methyl isobutyl ketone)): > 500 mg/mL
solubility ([1]; organic solvent or mixture, hydrophobic water-immiscible solvents (e.g. n-octanol, nitrobenzene, butyronitrile)): < 50 mg/mL
solubility [1, 15]: > 500 mg/mL
solubility [1, 16]: > 500 mg/mL
solubility [1, 17]: 50 mg/mL (≈ 86.5 mM)
solubility [1, 18]: < 20 mg/mL
solubility ([1]; water (aqueous buffer), 55° C.): 150 mg/mL (≈ 259 mM)
Rate of reaction on TCR relative to raffinose ([2]; M. vinacea melibiase (Hokkaido Sugar Co.)): only a few percent of the rate on raffinose itself
TCR hydrolysed ([2]; after 48 hours): about 53%
TCR hydrolysed ([2]; after 90 hours): about 70%
Kcat ([2]; aqueous solution): 52.5 mg per g enzyme per hour
Km ([2]; aqueous solution, read-out: Michaelis constant (Km)): 5.8 mM
Conversion of TCR into sucralose ([3]; aqueous buffer): 70%
Conversion of TCR into sucralose ([3]; ethyl acetate): greater than 50%
Conversion of TCR into sucralose ([3]; methyl isobutyl ketone): 70%
Conversion of TCR into sucralose ([3]; n-butanol): greater than 50%
TCR hydrolysis in highly water-miscible solvents ([3]; dioxane, acetone, methanol, THF, even with 30% v/v aqueous buffer): unable to support hydrolysis
Kcat ([3]; ethyl acetate): 56.3 mg sucralose/g pellets/h
Km ([3]; ethyl acetate): 16.4 mM
TCR Hydrolysis ([4]; Absidia griseola ATCC 20430, for 70% conversion): 0 mg sucralose per g dry weight
TCR Hydrolysis ([4]; Absidia griseola ATCC 20431, for 70% conversion): < 0.2 mg sucralose per g dry weight
TCR Hydrolysis ([4]; Absidia griseola ATCC 22618, for 70% conversion): 0 mg sucralose per g dry weight
TCR Hydrolysis [5]: 0 mg sucralose per g dry weight
TCR Hydrolysis [6]: 0.49 mg sucralose per g dry weight
TCR Hydrolysis ([7]; Circinella muscae ATCC 16008, for 70% conversion): 1.12 mg sucralose per g dry weight
TCR Hydrolysis ([7]; Circinella muscae ATCC 20394, for 70% conversion): < 0.2 mg sucralose per g dry weight
TCR Hydrolysis ([7]; Circinella muscae ATCC 22337, for 70% conversion): 0 mg sucralose per g dry weight
TCR Hydrolysis ([8]; Mortierella vinacea ATCC 20034, for 70% conversion): 1.09 mg sucralose per g dry weight
TCR Hydrolysis ([8]; Mortierella vinacea ATCC 34195, for 70% conversion): 1.33 mg sucralose per g dry weight
TCR Hydrolysis ([8]; Mortierella vinacea ATCC 42425, for 70% conversion): 1.06 mg sucralose per g dry weight
TCR Hydrolysis ([8]; Mortierella vinacea Hokkaido (pellets), for 70% conversion): 4.3 mg sucralose per g dry weight
TCR Hydrolysis [9]: 0 mg sucralose per g dry weight
TCR Hydrolysis [10]: 0 mg sucralose per g dry weight

solubility [1, 14]: 57 mg/mL (≈ 143 mM)
solubility [1, 15]: 60 mg/mL (≈ 151 mM)
solubility [1, 16]: > 500 mg/mL
solubility [1, 17]: < 10 mg/mL
solubility [1, 18]: < 10 mg/mL
solubility ([1]; water (aqueous buffer), 55° C.): 300 mg/mL (≈ 754 mM)
Degradation of sucralose produced [11]: not degraded
SMILES: OC[C@H]1O[C@H](O[C@]2(CCl)O[C@H](CCl)[C@@H](O)[C@@H]2O)[C@H](O)[C@@H](O)[C@H]1Cl [sucralose, 4,1',6'-trichloro-4,1',6'-trideoxygalactosucrose]
Sweetness relative to sucrose [12]: about 600 X
Degradation in vivo [13]: not degraded in vivo
